Structures can show the parent of a compound that is named as a salt.
Experiments:
[1] = target: human recombinant GST cleaved CSNK1D (Homo sapiens (Human), UniProt P48730); experiment: Purified enzyme assay (ADP-Glo Kinase Assay); type: biochemical; settings: 2 nM CSNK1D, peptide substrate 150 μM, ATP 20 μM, 45 minutes room temperature
[2] = target: human CSNK1D tagged with nanoluciferase (Homo sapiens (Human), UniProt P48730); experiment: Whole Cell nBRET CSNK1D Binding Assay; settings: living CHO cells stably expressing human CSNK1D-nanoluciferase; NanoBret tracer 130 nM; 2 hours 37° C.; read-out: CSNK1D BRET IC50
human CSNK1D tagged with nanoluciferase, sequence (P48730 whole entry): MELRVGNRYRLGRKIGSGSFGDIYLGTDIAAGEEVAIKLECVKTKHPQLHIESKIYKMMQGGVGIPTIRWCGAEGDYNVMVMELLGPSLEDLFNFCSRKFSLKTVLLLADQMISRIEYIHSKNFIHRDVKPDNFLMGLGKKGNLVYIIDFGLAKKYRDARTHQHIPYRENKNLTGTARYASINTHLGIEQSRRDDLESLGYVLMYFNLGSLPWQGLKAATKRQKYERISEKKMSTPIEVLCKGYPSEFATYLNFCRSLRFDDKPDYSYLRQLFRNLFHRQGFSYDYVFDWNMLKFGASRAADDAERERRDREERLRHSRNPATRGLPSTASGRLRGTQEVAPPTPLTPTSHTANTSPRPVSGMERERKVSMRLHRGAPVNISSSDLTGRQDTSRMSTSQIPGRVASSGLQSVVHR
In short: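 Live CHO cells stably expressing nanoluciferase-tagged CSNK1D, seeded in serum-free OptiMEM, received compound dose-response plus NanoBRET tracer (130 nM) for 2 h at 37 °C.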

human recombinant GST cleaved CSNK1D, sequence (P48730 whole entry): as above

AC50 [1] | IC50 [2] | Structure (SMILES)
7 nM | 52 nM | Cc1cnc2[nH]ccc2c1-c1cn(C)nc1-c1ccc(F)cn1 [Example 79, 4-[3-(5-Fluoro-2-pyridyl)-1-methyl-pyrazol-4-yl]-5-methyl-1H-pyrrolo[2,3-b]pyridine]
46 nM | 390 nM | Cn1cc(-c2ccnc3[nH]ncc23)c(-c2ncc(F)cc2F)n1 [Example 38, 4-(3-(3,5-Difluoropyridin-2-yl)-1-methyl-1H-pyrazol-4-yl)-1H-pyrazolo[3,4-b]pyridine]
9180 nM | > 10000 nM | Cn1cc(-c2ccnc3[nH]ccc23)c(-c2ccc(OC(F)F)cn2)n1 [Example 35, 4-[3-[5-(Difluoromethoxy)-2-pyridyl]-1-methyl-pyrazol-4-yl]-1H-pyrrolo[2,3-b]pyridine]
217 nM | 8620 nM | Cc1cc(-c2cn(C)nc2-c2ccncc2Cl)c2cn[nH]c2n1 [Example 138, 4-[3-(3-Chloro-4-pyridyl)-1-methyl-pyrazol-4-yl]-6-methyl-1H-pyrazolo[3,4-b]pyridine]
10 nM | 187 nM | Cn1cc(-c2ccnc3[nH]c(C4(O)COC4)cc23)c(-c2ccc(F)cn2)n1 [Example 94, 3-(4-(3-(5-Fluoropyridin-2-yl)-1-methyl-1H-pyrazol-4-yl)-1H-pyrrolo[2,3-b]pyridin-2-yl)oxetan-3-ol]
16 nM | 568 nM | Cn1cnc(-c2nn(C)cc2-c2ccnc3[nH]ccc23)c1 [Example 9, 4-(1-Methyl-3-(1-methyl-1H-imidazol-4-yl)-1H-pyrazol-4-yl)-1H-pyrrolo[2,3-b]pyridine]
168 nM | 7120 nM | Cc1cc(-c2nn(C)cc2-c2cc(C)nc3[nH]ncc23)ccn1 [Example 135, 6-Methyl-4-[1-methyl-3-(2-methyl-4-pyridyl)pyrazol-4-yl]-1H-pyrazolo[3,4-b]pyridine]
128 nM | 8940 nM | Cc1ccc(-c2nn(C)cc2-c2ccnc3[nH]ncc23)nc1 [Example 32, 4-(1-Methyl-3-(5-methylpyridin-2-yl)-1H-pyrazol-4-yl)-1H-pyrazolo[3,4-b]pyridine]
6480 nM | > 10000 nM | Cn1cc(-c2ccnc3[nH]ccc23)c(-c2ccc(OC(F)(F)F)cn2)n1 [Example 36, 4-[1-Methyl-3-[5-(trifluoromethoxy)-2-pyridyl]pyrazol-4-yl]-1H-pyrrolo[2,3-b]pyridine]
15 nM | > 10000 nM | CC(C)c1n[nH]c2nccc(-c3cn(C)nc3-c3ccc(F)cn3)c12 [Example 122, 4-[3-(5-Fluoro-2-pyridyl)-1-methyl-pyrazol-4-yl]-3-isopropyl-1H-pyrazolo[3,4-b]pyridine]
19 nM | 288 nM | Cc1cc(-c2cn(C)nc2-c2ccc(F)c(C)n2)c2cn[nH]c2n1 [Example 40, 4-(3-(5-Fluoro-6-methylpyridin-2-yl)-1-methyl-1H-pyrazol-4-yl)-6-methyl-1H-pyrazolo[3,4-b]pyridine]
113 nM | 1820 nM | Cn1cc(-c2ccnc3ccc(C#N)cc23)c(-c2ccc(F)cn2)n1 [Example 150, 4-[3-(5-Fluoro-2-pyridyl)-1-methyl-pyrazol-4-yl]quinoline-6-carbonitrile]
7 nM | 53 nM | Cn1cc(-c2ccnc3[nH]cc(F)c23)c(-c2ccc(F)cn2)n1 [Example 77, 3-Fluoro-4-[3-(5-fluoro-2-pyridyl)-1-methyl-pyrazol-4-yl]-1H-pyrrolo[2,3-b]pyridine]
16 nM | 144 nM | Cn1cc(-c2ccnc3[nH]cc(C#N)c23)c(-c2ccc(F)cn2)n1 [Example 88, 4-[3-(5-Fluoro-2-pyridyl)-1-methyl-pyrazol-4-yl]-1H-pyrrolo[2,3-b]pyridine-3-carbonitrile]
17 nM | 97 nM | CC(C)n1cc(-c2ccnc3[nH]ccc23)c(-c2ccc(F)cn2)n1 [Example 58, 4-[3-(5-Fluoro-2-pyridyl)-1-isopropyl-pyrazol-4-yl]-1H-pyrrolo[2,3-b]pyridine]
346 nM | > 10000 nM | Cc1cnc(-c2nn(C)cc2-c2ccnc3[nH]ccc23)cn1 [Example 47, 4-[1-Methyl-3-(5-methylpyrazin-2-yl)pyrazol-4-yl]-1H-pyrrolo[2,3-b]pyridine]
109 nM | 785 nM | COc1ccc2nccc(-c3cn(C)nc3-c3ccc(F)cn3)c2c1 [Example 129, 4-[3-(5-Fluoro-2-pyridyl)-1-methyl-pyrazol-4-yl]-6-methoxy-quinoline]
2280 nM | > 10000 nM | Cn1cc(-c2ccnc3[nH]ccc23)c(-c2cncn2C)n1 [Example 10, 4-(1-Methyl-3-(1-methyl-1H-imidazol-5-yl)-1H-pyrazol-4-yl)-1H-pyrrolo[2,3-b]pyridine]
746 nM | > 10000 nM | Cn1cc(-c2ccnc3[nH]ccc23)c(-c2cncnc2)n1 [Example 45, 4-(1-Methyl-3-pyrimidin-5-yl-pyrazol-4-yl)-1H-pyrrolo[2,3-b]pyridine]

AC50 [1] | IC50 [2] | Structure (SMILES)
7090 nM | > 10000 nM | COc1cccc2c(-c3cn(C)nc3-c3ccc(F)cn3)ccnc12 [Example 148, 4-[3-(5-Fluoro-2-pyridyl)-1-methyl-pyrazol-4-yl]-8-methoxy-quinoline]
4 nM | 234 nM | Cc1nc(-c2cn(C)nc2-c2ccc(F)cn2)c2cc[nH]c2n1 [Example 123, 4-[3-(5-Fluoro-2-pyridyl)-1-methyl-pyrazol-4-yl]-2-methyl-7H-pyrrolo[2,3-d]pyrimidine Trifluoroacetate Salt]
100 nM | 1980 nM | COc1cccc(-c2nn(C)cc2-c2cc(C)nc3[nH]ncc23)n1 [Example 34, 4-(3-(6-Methoxypyridin-2-yl)-1-methyl-1H-pyrazol-4-yl)-6-methyl-1H-pyrazolo[3,4-b]pyridine]
43 nM | 1600 nM | CCn1ncc2cc(-c3cn(C)nc3-c3ccc(F)cn3)cnc21 [Example 121, 1-Ethyl-5-[3-(5-fluoro-2-pyridyl)-1-methyl-pyrazol-4-yl]pyrazolo[3,4-b]pyridine]
3 nM | 113 nM | Cc1cc(-c2cn(C3CCC3)nc2-c2ccc(F)cn2)c2cn[nH]c2n1 [Example 71, 4-(1-Cyclobutyl-3-(5-fluoropyridin-2-yl)-1H-pyrazol-4-yl)-6-methyl-1H-pyrazolo[3,4-b]pyridine]
7 nM | 181 nM | Cn1cc(-c2ccnc3[nH]ccc23)c(-c2ccsn2)n1 [Example 15, 3-(1-Methyl-4-(1H-pyrrolo[2,3-b]pyridin-4-yl)-1H-pyrazol-3-yl)isothiazole]
451 nM | > 10000 nM | Cn1cc(-c2ccnc3[nH]ccc23)c(-c2ccnnc2)n1 [Example 49, 4-(1-Methyl-3-pyridazin-4-yl-pyrazol-4-yl)-1H-pyrrolo[2,3-b]pyridine]
384 nM | > 10000 nM | Cn1cc(-c2ccnc3[nH]cc(CC4CCOC4)c23)c(-c2ccc(F)cn2)n1 (racemic) [Example 97, (R/S)-4-[3-(5-Fluoro-2-pyridyl)-1-methyl-pyrazol-4-yl]-3-(tetrahydrofuran-3-ylmethyl)-1H-pyrrolo[2,3-b]pyridine]
34 nM | 829 nM | Cn1cc(-c2cc(C3CC3)nc3[nH]ncc23)c(-c2ccc(F)cn2)n1 [Example 101, 6-Cyclopropyl-4-(3-(5-fluoropyridin-2-yl)-1-methyl-1H-pyrazol-4-yl)-1H-pyrazolo[3,4-b]pyridine]
5 nM | 205 nM | CCn1cc(-c2ccnc3[nH]ncc23)c(-c2ccc(F)cn2)n1 [Example 56, 4-(1-Ethyl-3-(5-fluoropyridin-2-yl)-1H-pyrazol-4-yl)-1H-pyrazolo[3,4-b]pyridine]
1100 nM | > 10000 nM | Cn1cc(-c2ccnc3c(F)cccc23)c(-c2ccc(F)cn2)n1 [Example 147, 8-Fluoro-4-[3-(5-fluoro-2-pyridyl)-1-methyl-pyrazol-4-yl]quinoline]
68 nM | 359 nM | Cn1cc(-c2ccnc3[nH]ccc23)c(-c2cccnc2)n1 [Example 53, 4-[1-Methyl-3-(3-pyridyl)pyrazol-4-yl]-1H-pyrrolo[2,3-b]pyridine]
11 nM | 238 nM | Cc1cc(-c2cn(C)nc2-c2ccc(F)cn2)c2cn[nH]c2n1 [Example 99, 4-(3-(5-Fluoropyridin-2-yl)-1-methyl-1H-pyrazol-4-yl)-6-methyl-1H-pyrazolo[3,4-b]pyridine]
6 nM | 311 nM | Cc1cc(-c2cn(CC(F)F)nc2-c2ccc(F)cn2)c2cn[nH]c2n1 [Example 69, 4-(1-(2,2-Difluoroethyl)-3-(5-fluoropyridin-2-yl)-1H-pyrazol-4-yl)-6-methyl-1H-pyrazolo[3,4-b]pyridine]
8 nM | 136 nM | Fc1ccc(-c2nn(C3COC3)cc2-c2ccnc3[nH]ccc23)nc1 [Example 72, 4-[3-(5-Fluoro-2-pyridyl)-1-(oxetan-3-yl)pyrazol-4-yl]-1H-pyrrolo[2,3-b]pyridine]
38 nM | 453 nM | COc1cc(OC)c2c(-c3cn(C)nc3-c3ccc(F)cn3)ccnc2c1 [Example 151, 4-[3-(5-Fluoro-2-pyridyl)-1-methyl-pyrazol-4-yl]-5,7-dimethoxy-quinoline]
14 nM | 115 nM | CC(C)Cn1cc(-c2ccnc3[nH]ccc23)c(-c2ccc(F)cn2)n1 [Example 61, 4-[3-(5-Fluoro-2-pyridyl)-1-isobutyl-pyrazol-4-yl]-1H-pyrrolo[2,3-b]pyridine]
28 nM | 626 nM | Cn1cc(-c2ccnc3[nH]ccc23)c(-c2cscn2)n1 [Example 13, 4-(1-Methyl-4-(1H-pyrrolo[2,3-b]pyridin-4-yl)-1H-pyrazol-3-yl)thiazole]
